Our source for the IC50 values is patent publication US20230399341A1, “7-PHENYL SUBSTITUTED 2-AMINOQUINAZOLINE INHIBITORS OF HPK1” (MERCK SHARP & DOHME LLC, priority 2020, published 2023).

Molecules are shown by their SMILES.

In this assay the target is T1, Human HPK1, catalytic domain (Homo sapiens, UniProt Q92918).
T1 sequence (Q92918 1-346): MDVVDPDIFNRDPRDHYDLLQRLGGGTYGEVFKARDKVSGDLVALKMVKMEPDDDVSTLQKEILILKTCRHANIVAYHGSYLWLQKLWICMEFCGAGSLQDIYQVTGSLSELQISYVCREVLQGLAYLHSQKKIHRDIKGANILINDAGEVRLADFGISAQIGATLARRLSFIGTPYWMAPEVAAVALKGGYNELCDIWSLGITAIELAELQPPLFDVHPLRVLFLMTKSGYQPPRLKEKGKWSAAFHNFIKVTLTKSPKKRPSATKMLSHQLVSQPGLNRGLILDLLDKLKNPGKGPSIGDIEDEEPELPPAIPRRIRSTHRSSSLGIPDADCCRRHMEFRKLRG
Description: HPK1-SLP76 TR-FRET Assay. It counts as biochemical. The following applies: 75 pM HPK1, ATP 10 uM, SLP76 10 nM, 30 min pre-incubation, 60 min reaction.
Take `COc1cc2c(cc1Nc1ncc3cc(C#N)c(-c4cnc5c(c4C)NCCO5)cc3n1)CN(C)CC2` [Compound 1-97, 2-[(6-methoxy-2-methyl-1-1,2,3,4-tetrahydroisoquinolin-7-yl)amino]-7-(8-methyl-2,3-dihydro-1H-pyrido[2,3-b][1,4]oxazin-7-yl)quinazoline-6-carbonitrile]: the half-inhibitory concentration (IC50) – broadly, the concentration needed to halve the response being measured – turned out to be 53.8 nM.
`COc1cc2c(cc1Nc1ncc3ccc(-c4cccc(CNC(C)=O)c4)cc3n1)CN(C)CC2` [Compound 1-98, N-[(3-{2-[(6-methoxy-2-methyl-1,2,3,4-tetrahydroisoquinolin-7-yl)amino]quinazolin-7-yl}phenyl)methyl]acetamide] gave a 50% inhibitory concentration (IC50) of 203 nM.
The same measure for `COc1cc2c(cc1Nc1ncc3ccc(-c4cccc(C(C)(C)NC(C)=O)c4)cc3n1)CN(C)CC2` [Compound 1-100, N-[2-(3-{2-[(6-methoxy-2-methyl-1,2,3,4-tetrahydroisoquinolin-7-yl)amino]quinazolin-7-yl}phenyl)propan-2-yl]acetamide]: 281 nM; for `COc1cc2c(cc1Nc1ncc3ccc(-c4cccc(C(N)=O)c4)cc3n1)CN(C)CC2` [Compound 1-101, 3-{2-[(6-methoxy-2-methyl-1,2,3,4-tetrahydroisoquinolin-7-yl)amino]quinazolin-7-yl}benzamide]: 130 nM.
Compound `COc1cc2c(cc1Nc1ncc3ccc(-c4ccc(C#N)nc4)cc3n1)CN(C)CC2` [Compound 1-103, 5-{2-[(6-methoxy-2-methyl-1,2,3,4-tetrahydroisoquinolin-7-yl)amino]quinazolin-7-yl}pyridine-2-carbonitrile] showed a half-inhibitory concentration (IC50) of 328 nM.
`COc1cc2c(cc1Nc1ncc3ccc(-c4cnc(C#N)c(C)c4)cc3n1)CN(C)CC2` [Compound 1-104, 5-{2-[(6-methoxy-2-methyl-1,2,3,4-tetrahydroisoquinolin-7-yl)amino]quinazolin-7-yl}-3-methylpyridine-2-carbonitrile] had an IC50 of 212 nM.
Regarding `COc1cc2c(cc1Nc1ncc3ccc(-c4c[nH]nc4C)cc3n1)CN(C)CC2` [Compound 1-105, N-(6-methoxy-2-methyl-1,2,3,4-tetrahydroisoquinolin-7-yl)-7-(3-methyl-1H-pyrazol-4-yl)quinazolin-2-amine], the IC50 was determined as 196 nM.
`COc1cc2c(cc1Nc1ncc3ccc(-c4cnc5[nH]c(=O)[nH]c5c4)cc3n1)CN(C)CC2` [Compound 1-106, 6-{2-[(6-methoxy-2-methyl-1,2,3,4-tetrahydroisoquinolin-7-yl)amino]quinazolin-7-yl}-1,3-dihydro-2H-imidazo[4,5-b]pyridin-2-one]: the half-inhibitory concentration (IC50) is 44.1 nM.
The value for `COc1cc2c(cc1Nc1ncc3ccc(-c4ccc(-n5cccn5)nc4)cc3n1)CN(C)CC2` [Compound 1-107, N-(6-methoxy-2-methyl-1,2,3,4-tetrahydroisoquinolin-7-yl)-7-[6-(1H-pyrazol-1-yl)pyridin-3-yl]quinazolin-2-amine] was 488 nM; that for `COc1cc2c(cc1Nc1ncc3ccc(-c4ccc(CC#N)nc4)cc3n1)CN(C)CC2` [Compound 1-108, (5-{2-[(6-methoxy-2-methyl-1,2,3,4-tetrahydroisoquinolin-7-yl)amino]quinazolin-7-yl}pyridin-2-yl)acetonitrile] was 56 nM; that for `COc1cc2c(cc1Nc1ncc3ccc(-c4ccccc4-c4ccnn4C)cc3n1)CN(C)CC2` [Compound 1-109, N-(6-methoxy-2-methyl-1,2,3,4-tetrahydroisoquinolin-7-yl)-7-[2-(1-methyl-1H-pyrazol-5-yl)phenyl]quinazolin-2-amine] was 0.812 nM.
The value for `COc1cc2c(cc1Nc1ncc3ccc(-c4ccccc4-c4nnc(C)o4)cc3n1)CN(C)CC2` [Compound 1-110, N-(6-methoxy-2-methyl-1,2,3,4-tetrahydroisoquinolin-7-yl)-7-[2-(5-methyl-1,3,4-oxadiazol-2-yl)phenyl]quinazolin-2-amine] was 302 nM; that for `Cc1c(-c2cc3nc(Nc4ccc5c(c4)CN(CC(C)(C)O)C5=O)ncc3cc2F)cnc2c1NCCO2` [Compound 1-111, 5-{[6-fluoro-7-(8-methyl-2,3-dihydro-1H-pyrido[2,3-b][1,4]oxazin-7-yl)quinazolin-2-yl]amino}-2-(2-hydroxy-2-methylpropyl)-2,3-dihydro-1H-isoindol-1-one] was 0.766 nM.
The same measure for `Cc1c(-c2cc3nc(Nc4ccc5c(c4)C(C)(C)OC5=O)ncc3cc2F)cnc2c1NCCO2` [Compound 1-112, 5-{[6-fluoro-7-(8-methyl-2,3-dihydro-1H-pyrido[2,3-b][1,4]oxazin-7-yl)quinazolin-2-yl]amino}-3,3-dimethyl-2-benzofuran-1(3H)-one]: 5.2 nM; for `Cc1c(-c2cc3nc(Nc4ccc5c(c4)CN(C)CC5)ncc3cc2F)cnc2c1NCCO2` [Compound 1-114, 6-fluoro-7-(8-methyl-2,3-dihydro-1H-pyrido[2,3-b][1,4]oxazin-7-yl)-N-(2-methyl-1,2,3,4-tetrahydroisoquinolin-7-yl)quinazolin-2-amine]: 0.0883 nM; for `Cc1c(-c2cc3nc(Nc4ccc(CS(C)(=O)=O)cc4)ncc3cc2F)cnc2c1NCCO2` [Compound 1-115, 6-fluoro-7-(8-methyl-2,3-dihydro-1H-pyrido[2,3-b][1,4]oxazin-7-yl)-N-(4-[(methylsulfonyl)methyl]phe-nyl}quinazolin-2-amine]: 0.0508 nM.
`CNC(=O)C1(c2ccc(Nc3ncc4cc(F)c(-c5cnc6c(c5C)NCCO6)cc4n3)cc2)CCCC1` [Compound 1-120, 1-(4-{[6-fluoro-7-(8-methyl-2,3-dihydro-1H-pyrido[2,3-b][1,4]oxazin-7-yl)quinazolin-2-yl]amino}phenyl)-N-methylcyclopentane-1-carboxamide] yielded an IC50 of 0.595 nM.
The compound `CNC(=O)C1(c2ccc(Nc3ncc4cc(F)c(-c5cnc6c(c5C)NCCO6)cc4n3)cc2)CCC1` [Compound 1-121, 1-(4-{[6-fluoro-7-(8-methyl-2,3-dihydro-1H-pyrido[2,3-b][1,4]oxazin-7-yl)quinazolin-2-yl]amino}phenyl)-N-methylcyclobutane-1-carboxamide] returned an IC50 of 0.256 nM.
The same measure for `CNC(=O)C(F)(F)c1ccc(Nc2ncc3cc(F)c(-c4cnc5c(c4C)NCCO5)cc3n2)cc1` [Compound 1-122, 2,2-difluoro-2-(4-{[6-fluoro-7-(8-methyl-2,3-dihydro-1H-pyrido[2,3-b][1,4]oxazin-7-yl)quinazolin-2-yl]amino}phenyl)-N-methylacetamide]: 0.532 nM; for `Cc1c(-c2cc3nc(Nc4ccc(CS(=O)(=O)C(C)C)cc4)ncc3cc2F)cnc2c1NCCO2` [Compound 1-128, 6-fluoro-N-(4-((isopropylsulfonyl)methyl)phenyl)-7-(8-methyl-2,3-dihydro-1H-pyrido[2,3-b][1,4]oxazin-7-yl)quinazolin-2-amine]: 0.0828 nM; for `Cc1c(-c2ccc3cnc(Nc4ccc(CS(=O)(=O)C(C)C)cc4)nc3c2)cnc2c1NCCO2` [Compound 1-129, N-(4-((isopropylsulfonyl)methyl)phenyl)-7-(8-methyl-2,3-dihydro-1H-pyrido[2,3-b][1,4]oxazin-7-yl)quinazolin-2-amine]: 0.0917 nM.
The same measure for `CNC(=O)Cc1ccc(Nc2ncc3cc(F)c(-c4cnc5c(c4C)NCCO5)cc3n2)cc1` [Compound 1-130, 2-(4-{[6-fluoro-7-(8-methyl-2,3-dihydro-1H-pyrido[2,3-b][1,4]oxazin-7-yl)quinazolin-2-yl]amino}phenyl)-N-methylacetamide]: 0.0726 nM; for `Cc1c(-c2cc3nc(Nc4ccc(CC(N)=O)cc4)ncc3cc2F)cnc2c1NCCO2` [Compound 1-131, 2-(4-{[6-fluoro-7-(8-methyl-2,3-dihydro-1H-pyrido[2,3-b][1,4]oxazin-7-yl)quinazolin-2-yl]amino}phenyl)acetamide]: 0.165 nM; for `Cc1c(-c2cc3nc(Nc4ccc(CC(=O)N(C)C)cc4)ncc3cc2F)cnc2c1NCCO2` [Compound 1-132, 2-(4-{[6-fluoro-7-(8-methyl-2,3-dihydro-1H-pyrido[2,3-b][1,4]oxazin-7-yl)quinazolin-2-yl]amino}phenyl)-N,N-dimethylacetamide]: 0.132 nM.
The value for `Cc1c(-c2cc3nc(Nc4ccc(CC(=O)N5CCOCC5)cc4)ncc3cc2F)cnc2c1NCCO2` [Compound 1-133, 2-(4-{[6-fluoro-7-(8-methyl-2,3-dihydro-1H-pyrido[2,3-b][1,4]oxazin-7-yl)quinazolin-2-yl]amino}phenyl)-1-(morpholin-4-yl)ethan-1-one] was 0.0835 nM.
As for `CCS(=O)(=O)Cc1ccc(Nc2ncc3cc(F)c(-c4cnc5c(c4C)NCCO5)cc3n2)cc1` [Compound 1-134, N-{4-[(ethylsulfonyl)methyl]phe-nyl}-6-fluoro-7-(8-methyl-2,3-dihydro-1H-pyrido[2,3-b][1,4]oxazin-7-yl)quinazolin-2-amine], the IC50 came to 0.0425 nM.
The value for `Cc1c(-c2cc3nc(Nc4cnc5c(c4)CN(C)CC5)ncc3cc2F)cnc2c1NCCO2` [Compound 1-135, 6-fluoro-7-(8-methyl-2,3-dihydro-1H-pyrido[2,3-b][1,4]oxazin-7-yl)-N-(6-methyl-5,6,7,8-tetrahydro-1,6-naphthyridin-3-yl)quinazolin-2-amine] was 0.482 nM; that for `COc1cc2c(cc1Nc1ncc3c(N)c(F)c(-c4cncc(N)c4C)cc3n1)CN(C)CC2` [Compound 2-1, 7-(5-amino-4-methylpyridin-3-yl)-6-fluoro-N~2~-(6-methoxy-2-methyl-1,2,3,4-tetrahydroisoquinolin-7-yl)quinazoline-2,5-diamine] was 0.249 nM.
